According to ChEMBL document CHEMBL4831510, “Novel cannabidiol-carbamate hybrids as selective BuChE inhibitors: Docking-based fragment reassembly for the development of potential therapeutic agents against Alzheimer's disease” (Eur J Med Chem, 2021):
The source made the active and inactive calls. No cut-off for these calls is given here.

Assays:
[1] = Antioxidant activity assessed as DPPH radical scavenging activity at 100 uM incubated for 2 hrs by microplate reader method; type: functional
[2] = molecular target: Acetylcholinesterase (Electrophorus electricus, UniProt O42275); assay: Inhibition of electric eel AChE using acetylthiocholine iodide as substrate preincubated with enzyme for 20 mins followed by substrate addition and measured after 20 mins by Ellman's method
[3] = molecular target: T1, Cholinesterase (Equus caballus, UniProt P81908)
Description: Inhibition of equine serum BuChE using butyrylthiocholine iodide as substrate preincubated with enzyme for 20 mins followed by substrate addition and measured after 20 mins by Ellman's method

[4] = molecular target: Acetylcholinesterase (Homo sapiens, UniProt P22303); assay: Inhibition of human AChE using acetylthiocholine iodide as substrate at 20 uM preincubated with enzyme for 5 mins followed by substrate addition and measured after 5 mins by Ellman's method; details: time 10.0 min
[5] = n-Octanol/PBS partition coefficient, logP of the compound incubated for 48 hrs at pH 7.4 by shake flask method; type: physicochemical
[6] = Permeability of the compound at 100 ug/ml incubated for 18 hrs by PAMPA; type: ADME; details: dose 100 µg/ml, read-out: permeability
[7] = molecular target: Cholinesterase (Homo sapiens, UniProt P06276)
Description: Inhibition of human serum BuChE using butyrylthiocholine iodide as substrate preincubated with enzyme for 5 mins followed by substrate addition and measured after 5 mins by Ellman's method

[8] = molecular target: Acetylcholinesterase (Electrophorus electricus) (UniProt O42275); assay: Inhibition of electric eel AChE using acetylthiocholine iodide as substrate at 20 uM preincubated with enzyme for 20 mins followed by substrate addition and measured after 20 mins by Ellman's method; details: time 40.0 min
[9] = molecular target: T1, Cholinesterase; assay: Pseudo-irreversible inhibition of equine serum BuChE assessed as binding affinity in an equilibrium state using butyrylthiocholine iodide as substrate preincubated with enzyme for 60 mins prior to substrate addition; type: cell-free
[10] = molecular target: Cholinesterase (Equus caballus) (UniProt P81908); assay: Pseudo-irreversible inhibition of equine serum BuChE assessed as carbamolyation-rate using butyrylthiocholine iodide as substrate preincubated with enzyme for 60 mins prior to substrate addition; type: cell-free
[11] = molecular target: Cholinesterase (Equus caballus) (UniProt P81908); assay: Pseudo-irreversible inhibition of equine serum BuChE assessed as overall carbamolyation-rate using butyrylthiocholine iodide as substrate preincubated with enzyme for 60 mins prior to substrate addition; type: cell-free
[12] = molecular target: Cholinesterase (Equus caballus) (UniProt P81908); assay: Pseudo-irreversible inhibition of equine serum BuChE assessed as decarbamolyation-rate using butyrylthiocholine iodide as substrate preincubated with enzyme for 60 mins prior to substrate addition; type: cell-free
[13] = Cytotoxicity against human HepG2 cells assessed as cell viability at 50 uM incubated for 24 hrs by MTT assay; type: cell-based; details: read-out: Activity
[14] = test system: Mus musculus; assay: Anti-alzheimer activity against scopolamine-induced cognitive dysfunction mouse model assessed as reduction in escape time latency at 10 mg/kg, ip measured after 60 mins by Morris water maze test; type: functional, organism-based
[15] = test system: Mus musculus; assay: Anti-alzheimer activity against oligomerized-amyloid beta (1 to 42) peptide-induced cognitive dysfunction ICR mouse model assessed as reduction in escape latency time at 15 mg/kg, po administered from day 3 to 14 by Morris water maze test; type: functional, organism-based; details: time 12.0 day
[16] = test system: Mus musculus; assay: Anti-alzheimer activity against scopolamine-induced cognitive dysfunction mouse model assessed as increase in number of platform crossing at 10 mg/kg, ip measured after 60 mins by Morris water maze test; type: functional, organism-based
[17] = test system: Mus musculus; assay: Anti-alzheimer activity against scopolamine-induced cognitive dysfunction mouse model assessed as increase in swimming time in the target quadrant crossing at 10 mg/kg, ip measured after 60 mins by Morris water maze test; type: functional, organism-based
[18] = test system: Mus musculus; assay: Anti-alzheimer activity against oligomerized-amyloid beta (1 to 42) peptide-induced cognitive dysfunction ICR mouse model assessed as simplification of trajectories to the platform at 15 mg/kg, po administered from day 3 to 14 by Morris water maze test; type: functional, organism-based; details: time 12.0 day
[19] = test system: Mus musculus; assay: Anti-alzheimer activity against oligomerized-amyloid beta (1 to 42) peptide-induced cognitive dysfunction ICR mouse model assessed as improvement in alteration performance at 15 mg/kg, po administered from day 3 to 14 by […]; type: functional, organism-based; details: time 12.0 day
[20] = organism: Mus musculus; assay: animal or person; details: ICR, po, 288 h, read-out: INH
Description: Anti-alzheimer activity against oligomerized-amyloid beta (1 to 42) peptide-induced cognitive dysfunction ICR mouse model assessed as reduction in amyloid beta (1 to 42) peptide level in brain at 15 mg/kg, po administered from day 3 to 14 by ELISA

Acetylcholinesterase (Electrophorus electricus, UniProt O42275), sequence (O42275 whole entry): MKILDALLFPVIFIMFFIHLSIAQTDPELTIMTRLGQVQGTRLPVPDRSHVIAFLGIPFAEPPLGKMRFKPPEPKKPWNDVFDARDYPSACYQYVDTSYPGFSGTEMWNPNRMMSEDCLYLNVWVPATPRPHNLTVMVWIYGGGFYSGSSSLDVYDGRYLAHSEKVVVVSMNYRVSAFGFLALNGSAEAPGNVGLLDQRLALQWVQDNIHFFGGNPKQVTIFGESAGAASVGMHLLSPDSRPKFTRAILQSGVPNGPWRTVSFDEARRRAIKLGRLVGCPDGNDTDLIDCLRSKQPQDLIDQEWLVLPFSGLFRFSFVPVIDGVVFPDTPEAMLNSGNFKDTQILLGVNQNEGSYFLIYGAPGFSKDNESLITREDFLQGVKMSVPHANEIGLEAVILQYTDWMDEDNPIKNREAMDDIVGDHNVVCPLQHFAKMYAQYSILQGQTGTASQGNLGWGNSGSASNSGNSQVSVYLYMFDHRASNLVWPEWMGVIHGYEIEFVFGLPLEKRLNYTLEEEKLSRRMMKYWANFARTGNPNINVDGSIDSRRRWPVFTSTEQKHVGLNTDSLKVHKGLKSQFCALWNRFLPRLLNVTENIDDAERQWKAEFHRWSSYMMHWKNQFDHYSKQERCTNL
T1 sequence (P81908 whole entry): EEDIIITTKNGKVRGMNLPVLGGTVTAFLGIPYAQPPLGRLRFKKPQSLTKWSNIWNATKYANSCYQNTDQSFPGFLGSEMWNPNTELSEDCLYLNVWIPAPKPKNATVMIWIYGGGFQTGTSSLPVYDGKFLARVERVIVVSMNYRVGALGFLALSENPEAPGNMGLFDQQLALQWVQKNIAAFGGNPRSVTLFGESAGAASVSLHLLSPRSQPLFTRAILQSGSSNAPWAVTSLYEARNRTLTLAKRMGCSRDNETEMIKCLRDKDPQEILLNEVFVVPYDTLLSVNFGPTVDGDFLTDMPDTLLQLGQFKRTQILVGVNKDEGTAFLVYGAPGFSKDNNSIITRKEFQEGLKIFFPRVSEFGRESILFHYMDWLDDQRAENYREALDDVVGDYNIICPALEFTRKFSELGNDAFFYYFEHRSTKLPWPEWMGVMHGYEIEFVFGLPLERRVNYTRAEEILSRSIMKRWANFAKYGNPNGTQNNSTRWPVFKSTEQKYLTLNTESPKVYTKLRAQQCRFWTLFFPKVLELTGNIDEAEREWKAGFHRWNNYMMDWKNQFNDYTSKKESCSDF
Cholinesterase (Equus caballus), sequence (P81908 whole entry): as above
Acetylcholinesterase (Electrophorus electricus), sequence (O42275 24-633 limits assumed): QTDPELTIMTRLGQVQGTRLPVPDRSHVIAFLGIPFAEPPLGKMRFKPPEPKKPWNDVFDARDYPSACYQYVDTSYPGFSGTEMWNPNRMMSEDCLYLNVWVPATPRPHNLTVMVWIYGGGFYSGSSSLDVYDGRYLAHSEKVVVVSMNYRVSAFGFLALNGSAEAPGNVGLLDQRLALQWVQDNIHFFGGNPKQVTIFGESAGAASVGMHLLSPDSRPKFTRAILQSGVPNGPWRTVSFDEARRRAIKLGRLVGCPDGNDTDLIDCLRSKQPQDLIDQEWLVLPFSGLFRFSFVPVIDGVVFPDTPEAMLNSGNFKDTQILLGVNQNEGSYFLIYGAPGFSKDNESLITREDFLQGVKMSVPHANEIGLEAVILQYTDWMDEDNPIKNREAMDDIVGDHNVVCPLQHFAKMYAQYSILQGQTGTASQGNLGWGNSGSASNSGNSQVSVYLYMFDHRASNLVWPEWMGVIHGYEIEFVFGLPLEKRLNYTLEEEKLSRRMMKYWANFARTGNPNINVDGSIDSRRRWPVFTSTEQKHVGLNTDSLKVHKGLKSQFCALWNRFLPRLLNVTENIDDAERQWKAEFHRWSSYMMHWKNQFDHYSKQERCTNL
Cholinesterase (Homo sapiens, UniProt P06276), sequence (P06276 whole entry): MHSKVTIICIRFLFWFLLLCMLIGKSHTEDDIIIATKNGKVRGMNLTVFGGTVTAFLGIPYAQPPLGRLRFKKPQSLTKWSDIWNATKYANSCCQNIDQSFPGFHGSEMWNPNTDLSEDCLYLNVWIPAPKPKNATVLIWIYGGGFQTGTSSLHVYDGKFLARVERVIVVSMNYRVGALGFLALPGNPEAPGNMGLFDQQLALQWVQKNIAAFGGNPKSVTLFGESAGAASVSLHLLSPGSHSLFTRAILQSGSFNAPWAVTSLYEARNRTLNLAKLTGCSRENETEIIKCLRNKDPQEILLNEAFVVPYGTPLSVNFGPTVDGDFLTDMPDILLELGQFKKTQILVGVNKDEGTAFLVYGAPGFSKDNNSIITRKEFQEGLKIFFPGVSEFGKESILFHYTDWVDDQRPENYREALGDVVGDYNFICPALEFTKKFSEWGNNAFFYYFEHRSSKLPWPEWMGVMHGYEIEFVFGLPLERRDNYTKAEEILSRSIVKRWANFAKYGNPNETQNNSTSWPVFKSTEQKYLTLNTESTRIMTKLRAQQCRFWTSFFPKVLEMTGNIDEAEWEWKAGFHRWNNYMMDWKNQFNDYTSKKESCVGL
Acetylcholinesterase (Homo sapiens, UniProt P22303), sequence (P22303 whole entry): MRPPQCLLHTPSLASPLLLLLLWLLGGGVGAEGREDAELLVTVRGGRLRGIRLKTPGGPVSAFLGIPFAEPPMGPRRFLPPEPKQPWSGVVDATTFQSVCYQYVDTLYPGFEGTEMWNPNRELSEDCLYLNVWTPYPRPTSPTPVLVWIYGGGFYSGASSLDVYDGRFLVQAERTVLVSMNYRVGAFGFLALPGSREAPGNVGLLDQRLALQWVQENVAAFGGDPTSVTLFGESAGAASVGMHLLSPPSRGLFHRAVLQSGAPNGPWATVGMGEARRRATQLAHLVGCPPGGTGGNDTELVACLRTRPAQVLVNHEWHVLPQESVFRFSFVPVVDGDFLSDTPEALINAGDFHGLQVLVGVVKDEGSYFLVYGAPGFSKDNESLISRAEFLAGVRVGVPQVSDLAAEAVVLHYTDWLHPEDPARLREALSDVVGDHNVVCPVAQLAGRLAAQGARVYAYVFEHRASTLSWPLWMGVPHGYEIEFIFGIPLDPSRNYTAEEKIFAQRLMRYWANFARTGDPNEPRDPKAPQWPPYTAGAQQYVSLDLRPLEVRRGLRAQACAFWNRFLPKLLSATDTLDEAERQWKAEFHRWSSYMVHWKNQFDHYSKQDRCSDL

SMILES: C=C(C)[C@@H]1CCC(C)=C[C@H]1c1c(O)cc(CCCCC)cc1OC(=O)N1CCOCC1
- inhibition [1]: 21.1%
- IC50 [2]: Not Active
- IC50 [3]: 1890 nM

SMILES: C=C(C)[C@@H]1CCC(C)=C[C@H]1c1c(O)cc(CCCCC)cc1OC(=O)N(C)CC
- inhibition [4]: 13.2%
- inhibition [1]: 31.1%
- IC50 ([2]; read-out: IC50): 15000 nM
- logD at 48 h [5]: 1.92
- Papp at 18 h, 100 ug/ml [6]: 18.8 ×10⁻⁶ cm/s
- IC50 [7]: 1510 nM
- IC50 [3]: 77 nM

SMILES: C=C(C)[C@@H]1CCC(C)=C[C@H]1c1c(OC(=O)N(C)Cc2ccccc2)cc(CCCCC)cc1OC(=O)N(C)Cc1ccccc1
- inhibition [1]: 41.8%
- IC50 [2]: Not Active
- IC50 [3]: 380 nM

SMILES: C=C(C)[C@@H]1CCC(C)=C[C@H]1c1c(O)cc(CCCCC)cc1OC(=O)N1CCCCC1
- inhibition [1]: 46.8%
- inhibition [8]: 30.5%
- IC50 [3]: 530 nM

SMILES: C=C(C)[C@@H]1CCC(C)=C[C@H]1c1c(O)cc(CCCCC)cc1OC(=O)N1CCCC1
- inhibition [1]: 4.9%
- IC50 [2]: Not Active
- Kd [9]: 350 nM
- K [10]: 0.33 min⁻¹
- K [11]: 0.94 µM/min
- K [12]: 5.13 10^3/min
- IC50 [3]: 390 nM

SMILES: COc1cc2c(cc1OC)C(=O)C(CC1CCN(Cc3ccccc3)CC1)C2 (stereo not drawn) [DONEPEZIL]
- viability at 24 h, 50 µM [13]: 91.1%
- inhibition [1]: 1.3%
- Activity [14]: Active
- Activity [15]: Active
- Activity [16]: Active
- Activity [17]: Active
- Activity [18]: Active
- Activity [19]: Active
- inhibition in vivo at 15 mg/kg [20]: 19%

SMILES: C=C(C)[C@@H]1CCC(C)=C[C@H]1c1c(OC(=O)N2CCOCC2)cc(CCCCC)cc1OC(=O)N1CCOCC1
- inhibition [1]: 2%
- IC50 [2]: Not Active
- IC50 [3]: 3360 nM

SMILES: O=C1O[C@H]([C@@H](O)CO)C(O)=C1O
- inhibition [1]: 86.2%

SMILES: C=C(C)[C@@H]1CCC(C)=C[C@H]1c1c(O)cc(CCCCC)cc1OC(=O)N(CC)CC
- inhibition [1]: 40.4%
- inhibition [8]: 28.4%
- IC50 [3]: 370 nM

SMILES: C=C(C)[C@@H]1CCC(C)=C[C@H]1c1c(OC(=O)N(C)CC)cc(CCCCC)cc1OC(=O)N(C)CC
- inhibition [1]: 0.1%
- IC50 [2]: Not Active
- logD at 48 h [5]: 2.57
- IC50 [3]: 290 nM
